Measurements: patent publication US20180140578A1, “METHODS AND COMPOSITIONS FOR THE DIAGNOSIS AND SELECTIVE TREATMENT OF CANCER” (Board of Regents of the University of Texas System, priority 2016, published 2018)
Where two headings read alike, the source gives them in different places.

Key:
H3122 = assay: IC50 assay, NSCLC cell lines (Cell Titer Glo, total ATP); format: cell-based; settings: Homo sapiens
Method: (§1) Cells were plated at ˜15% confluence in a media comprising 5% concentration of fetal bovine serum supplemented with RPMI, which included 2 mM L-Glutamine in a 96 well dish. […] Following three days of incubation in a 5% CO2 incubator, the total ATP in each well was quantified using Cell Titer Glo (Promega). […] The solid lines represent the medians.

HCC44 = assay: as above; format: cell-based; settings: Homo sapiens
Method: as §1

H2887 = assay: as above; format: cell-based; settings: Homo sapiens
Method: as §1

H441 = assay: as above; format: cell-based; settings: Homo sapiens
Method: as §1

H1693 = assay: as above; format: cell-based; settings: Homo sapiens
Method: as §1

H157 = assay: as above; format: cell-based; settings: Homo sapiens
Method: as §1

H720 = assay: as above; format: cell-based; settings: Homo sapiens
Method: as §1

H2172 = assay: as above; format: cell-based; settings: Homo sapiens
Method: as §1

H920 = assay: as above; format: cell-based; settings: Homo sapiens
Method: as §1

H358 = assay: as above; format: cell-based; settings: Homo sapiens
Method: as §1

H2030 = assay: as above; format: cell-based; settings: Homo sapiens
Method: as §1

HCC78 = assay: as above; format: cell-based; settings: Homo sapiens
Method: as §1

H1437 = assay: as above; format: cell-based; settings: Homo sapiens
Method: as §1

H1819 = assay: as above; format: cell-based; settings: Homo sapiens
Method: as §1

H1703 = assay: as above; format: cell-based; settings: Homo sapiens
Method: as §1

H2342 = assay: as above; format: cell-based; settings: Homo sapiens
Method: as §1

H1573 = assay: as above; format: cell-based; settings: Homo sapiens, NCI-H1573, read-out: Indisulam IC50 (log 10) (converted), U2AF1 WT
Method: as §1

HCC1438 = assay: as above; format: cell-based; settings: Homo sapiens
Method: as §1

H2228 = assay: as above; format: cell-based; settings: Homo sapiens
Method: as §1

[1] = system: tumors derived from parental HCT-116 cells; settings: IV 25 mg/kg for 8 days; immune deficient mice; cited from earlier work
[2] = molecular target: T1, RBM39-3xFLAG G268V with CUL4-DCAF15 complex (Homo sapiens, UniProt Q14498+Q66K64, G268V); assay: In vitro formation of complex in lysates, G268V; format: binding; settings: in the presence of 10 μM of indisulam
T1 construct: lysate derived from parental cells, RBM39-3xFLAG cells, or RBM39 G268V-3xFLAG cells; endogenous in cells; host or cells: HCT-116 RBM39 G268V-3xFLAG cells (treated cells in A91; lysates in A95)
Method: First, we reconstituted formation of the RBM39-CUL4-DCAF15 complex in vitro (FIG. 4, panel A).
Anti-Flag M2 antibody (Sigma-Aldrich) was coupled to Dynabeads M-270 epoxy beads (Life Technologies) at the ratio of 10 μg of antibody/mg beads. […] Frozen cells were then pulverized in the a cryomill (Retsch) with one 25 mm steel ball and five cycles of three min at 25 Hz with intermittent cooling in liquid nitrogen. […] The lysates were centrifuged at 8000 g for 5 min at 4° C. 12 mg of conjugated Anti-Flag magnetic beads were mixed with clarified lysates for 5 min at 4° C. on a rotating platform, followed by three washes with IP buffer. Bound proteins were eluted with 1 mg/ml 3xFLAG peptide, followed by SDS-PAGE on a 10% Bis Tris gel. After brief electrophoresis, bands containing all the proteins were cut with clean blades. For western blotting of co-immunoprecipitated proteins, anti-DDA1 (ProteinTech, 14995-1-AP, 1:1000), anti-DDB1 (Abcam, ab109027, 1;10000), anti-CUL4A (Cell Signaling, 2699, 1:1000), anti-CUL4B (ProteinTech, 12916-1-AP, 1:1000) were used.

[3] = read-out: Indisulam IC50 (log 10) (converted), U2AF1 WT
[4] = read-out: Indisulam IC50, U2AF1 WT

NS(=O)(=O)c1ccc(S(=O)(=O)Nc2cccc3c(Cl)c[nH]c23)cc1 [Indisulam, indisulam]
IC50 (H3122; NCI-H3122, read-out: Indisulam IC50 (log 10) (converted), U2AF1 WT): 70.1 µM | IC50 (H3122; NCI-H3122, read-out: Indisulam IC50, U2AF1 WT): 70.1 µM | IC50 (HCC44; [3]): 23 µM | IC50 (HCC44; [4]): 23 µM | IC50 (H2887; NCI-H2887, read-out: Indisulam IC50 (log 10) (converted), U2AF1 WT): 9.63 µM | IC50 (H2887; NCI-H2887, read-out: Indisulam IC50, U2AF1 WT): 9.63 µM | IC50 (H441; NCI-H441, read-out: Indisulam IC50 (log 10) (converted), U2AF1 S34F): 59.5 µM | IC50 (H441; NCI-H441, read-out: Indisulam IC50, U2AF1 S34F): 59.5 µM | IC50 (H1693; NCI-H1693, read-out: Indisulam IC50 (log 10) (converted), U2AF1 WT): 5.17 µM | IC50 (H1693; NCI-H1693, read-out: Indisulam IC50, U2AF1 WT): 5.17 µM | IC50 (H157; NCI-H157, read-out: Indisulam IC50 (log 10) (converted), U2AF1 WT): 140 µM | IC50 (H157; NCI-H157, read-out: Indisulam IC50, U2AF1 WT): 140 µM | IC50 (H720; [3]): 1.79 µM | IC50 (H720; [4]): 1.79 µM | IC50 (H2172; NCI-H2172, read-out: Indisulam IC50 (log 10) (converted), U2AF1 WT): 20.5 µM | IC50 (H2172; NCI-H2172, read-out: Indisulam IC50, U2AF1 WT): 20.5 µM | IC50 (H920; [3]): 2.17 µM | IC50 (H920; [4]): 2.17 µM | IC50 (H358; NCI-H358, read-out: Indisulam IC50 (log 10) (converted), U2AF1 WT): ≥ 500 µM | IC50 (H358; NCI-H358, read-out: Indisulam IC50, U2AF1 WT): 2840 µM | IC50 (H2030; NCI-H2030, read-out: Indisulam IC50 (log 10) (converted), U2AF1 WT): 79.1 µM | IC50 (H2030; NCI-H2030, read-out: Indisulam IC50, U2AF1 WT): 79.1 µM | IC50 (HCC78; read-out: Indisulam IC50 (log 10) (converted), U2AF1 S34F): 1.15 µM | IC50 (HCC78; read-out: Indisulam IC50, U2AF1 S34F): 1.15 µM | IC50 (H1437; NCI-H1437, read-out: Indisulam IC50 (log 10) (converted), U2AF1 WT): 14 µM | IC50 (H1437; NCI-H1437, read-out: Indisulam IC50, U2AF1 WT): 14 µM | IC50 (H1819; NCI-H1819, read-out: Indisulam IC50 (log 10) (converted), U2AF1 WT): 9.6 µM | IC50 (H1819; NCI-H1819, read-out: Indisulam IC50, U2AF1 WT): 9.6 µM | IC50 (H1703; NCI-H1703, read-out: Indisulam IC50 (log 10) (converted), U2AF1 WT): 3.33 µM | IC50 (H1703; NCI-H1703, read-out: Indisulam IC50, U2AF1 WT): 3.33 µM | IC50 (H2342; NCI-H2342, read-out: Indisulam IC50 (log 10) (converted), U2AF1 WT): 58.6 µM | IC50 (H2342; NCI-H2342, read-out: Indisulam IC50, U2AF1 WT): 58.6 µM | IC50 (H1573): ≥ 500 µM | IC50 (HCC1438; [3]): 22.7 µM | IC50 (HCC1438; [4]): 22.7 µM | IC50 (H2228; NCI-H2228, read-out: Indisulam IC50 (log 10) (converted), U2AF1 WT): 1.26 µM | IC50 (H2228; NCI-H2228, read-out: Indisulam IC50, U2AF1 WT): 1.26 µM | tumor response (previously shown) [1]: regression | co-purification of RBM39-3xFLAG G268V with CUL4-DCAF15 complex [2]: did not co-purify
